Values quoted from earlier work, collected in PMC4014123 (Acta Crystallographica Section D: Biological Crystallography, 2014).

System: I223R/H275Y dual mutation of neuraminidase from influenza A H1N1
Details: I223R/H275Y dual mutant vs wild type; ref van der Vries et al., 2012; cited from earlier work

CCOC(=O)C1=C[C@@H](OC(CC)CC)[C@H](NC(C)=O)[C@@H](N)C1 [oseltamivir]
resistance towards oseltamivir relative to wild type: approximately 7500 times
